This note sets out measurements from ChEMBL document CHEMBL1146921, “Synthesis and antibacterial activity of 6-O-heteroarylcarbamoyl-11,12-lactoketolides” (2006).

Common to all, as to format: functional
One test deals with Haemophilus influenzae. As to the kind of experiment: Antibacterial activity against Haemophilus influenzae OC4882.
Test [1] relates to Streptococcus pneumoniae. Briefly: Antibacterial activity against erythromycin-resistant Streptococcus pneumoniae OC4051.
Test [2] relates to Streptococcus pneumoniae. As to the kind of experiment: Antibacterial activity against erythromycin-resistant Streptococcus pneumoniae OC4421.
In test [3] the test system is Staphylococcus aureus. As to the kind of experiment: Antibacterial activity against Staphylococcus aureus Smith OC4172.
The test system of test [4] is Staphylococcus aureus. As to the kind of experiment: Antibacterial activity against Staphylococcus aureus Smith OC4172 in presence of 50% mouse serum.
For test [5], the system named is Streptococcus pneumoniae. As to the kind of experiment: Antibacterial activity against erythromycin-susceptible Streptococcus pneumoniae ATCC 6301.

Values after ≈ are worked out from the molar mass of the structure shown.

Regarding `CC[C@H]1OC(=O)[C@H](C)C(=O)[C@H](C)[C@@H](O[C@@H]2O[C@H](C)C[C@H](N(C)C)[C@H]2O)[C@](C)(OC(=O)NC/C=C/c2cccnc2)C[C@@H](C)C(=O)[C@H](C)[C@H]2CC(=O)O[C@@]21C`, the MIC was determined as 4 µg/mL (≈ 5.28 µM) in the test on Haemophilus influenzae; 2 µg/mL (≈ 2.64 µM) in the test on Streptococcus pneumoniae [1]; 0.5 µg/mL (≈ 0.66 µM) in the test with Streptococcus pneumoniae [2]; 1 µg/mL (≈ 1.32 µM) against Staphylococcus aureus [3]; 1 µg/mL with Staphylococcus aureus [4]; 0.03 µg/mL (≈ 0.0396 µM) in the test with Streptococcus pneumoniae [5].
On to `CC[C@H]1OC(=O)[C@H](C)C(=O)[C@H](C)[C@@H](O[C@@H]2O[C@H](C)C[C@H](N(C)C)[C@H]2O)[C@](C)(OC(=O)NCc2ccc3ncccc3c2)C[C@@H](C)C(=O)[C@H](C)[C@H]2CC(=O)O[C@@]21C`, for which the MIC against Haemophilus influenzae stood at 8 µg/mL (≈ 10.2 µM); against Streptococcus pneumoniae [1], 2 µg/mL (≈ 2.56 µM); against Streptococcus pneumoniae [2] it was 0.5 µg/mL (≈ 0.639 µM); in the test on Staphylococcus aureus [3], 1 µg/mL (≈ 1.28 µM); with Staphylococcus aureus [4] it was 4 µg/mL; with Streptococcus pneumoniae [5] it was 0.06 µg/mL (≈ 0.0767 µM).
Take `CC[C@H]1OC(=O)[C@H](C)C(=O)[C@H](C)[C@@H](O[C@@H]2O[C@H](C)C[C@H](N(C)C)[C@H]2O)[C@](C)(OC(=O)NCc2ccc(-c3ccccn3)cc2)C[C@@H](C)C(=O)[C@H](C)[C@H]2CC(=O)O[C@@]21C`: the MIC against Haemophilus influenzae worked out at 16 µg/mL (≈ 19.8 µM); against Streptococcus pneumoniae [1], 0.25 µg/mL (≈ 0.309 µM); in the test with Streptococcus pneumoniae [2], 0.5 µg/mL (≈ 0.619 µM); against Staphylococcus aureus [3], 1 µg/mL (≈ 1.24 µM); in the test with Staphylococcus aureus [4] it was 8 µg/mL; against Streptococcus pneumoniae [5], 0.03 µg/mL (≈ 0.0371 µM).
Take `CC[C@H]1OC(=O)[C@H](C)C(=O)[C@H](C)[C@@H](O[C@@H]2O[C@H](C)C[C@H](N(C)C)[C@H]2O)[C@](C)(OC(=O)NC/C=C/c2ccc3ncccc3c2)C[C@@H](C)C(=O)[C@H](C)[C@H]2CC(=O)O[C@@]21C`: the MIC was determined as 2 µg/mL (≈ 2.48 µM) in the test with Haemophilus influenzae; 0.12 µg/mL (≈ 0.149 µM) against Streptococcus pneumoniae [1]; 0.25 µg/mL (≈ 0.309 µM) against Streptococcus pneumoniae [2]; 0.5 µg/mL (≈ 0.619 µM) in the test with Staphylococcus aureus [3]; 2 µg/mL in the test on Staphylococcus aureus [4]; 0.03 µg/mL (≈ 0.0371 µM) with Streptococcus pneumoniae [5].
Take `CC[C@H]1OC(=O)[C@H](C)C(=O)[C@H](C)[C@@H](O[C@@H]2O[C@H](C)C[C@H](N(C)C)[C@H]2O)[C@](C)(OC(=O)NC/C=C/c2ccc3nccnc3c2)C[C@@H](C)C(=O)[C@H](C)[C@H]2CC(=O)O[C@@]21C`: the MIC was 4 µg/mL (≈ 4.94 µM) against Haemophilus influenzae; 0.25 µg/mL (≈ 0.309 µM) in the test with Streptococcus pneumoniae [1]; 0.5 µg/mL (≈ 0.618 µM) in the test with Streptococcus pneumoniae [2]; 0.5 µg/mL (≈ 0.618 µM) with Staphylococcus aureus [3]; 2 µg/mL in the test with Staphylococcus aureus [4]; 0.03 µg/mL (≈ 0.0371 µM) in the test with Streptococcus pneumoniae [5].
Regarding `CC[C@H]1OC(=O)[C@H](C)C(=O)[C@H](C)[C@@H](O[C@@H]2O[C@H](C)C[C@H](N(C)C)[C@H]2O)[C@](C)(OC(=O)NC/C=C/c2ccc(-c3ccccn3)cc2)C[C@@H](C)C(=O)[C@H](C)[C@H]2CC(=O)O[C@@]21C`, the MIC against Haemophilus influenzae worked out at 8 µg/mL (≈ 9.59 µM); in the test on Streptococcus pneumoniae [1], 0.25 µg/mL (≈ 0.3 µM); in the test on Streptococcus pneumoniae [2], 0.5 µg/mL (≈ 0.6 µM); against Staphylococcus aureus [3] it was 0.5 µg/mL (≈ 0.6 µM); in the test with Staphylococcus aureus [4] it was 2 µg/mL; in the test on Streptococcus pneumoniae [5], 0.06 µg/mL (≈ 0.0719 µM).
With `CC[C@H]1OC(=O)[C@H](C)C(=O)[C@H](C)[C@@H](O[C@@H]2O[C@H](C)C[C@H](N(C)C)[C@H]2O)[C@](C)(OC(=O)NCc2cnc3ccccc3c2)C[C@@H](C)C(=O)[C@H](C)[C@H]2CC(=O)O[C@@]21C`, the MIC with Haemophilus influenzae was 8 µg/mL (≈ 10.2 µM); against Streptococcus pneumoniae [1], 0.5 µg/mL (≈ 0.639 µM); against Streptococcus pneumoniae [2], 0.5 µg/mL (≈ 0.639 µM); against Staphylococcus aureus [3] it was 0.5 µg/mL (≈ 0.639 µM); with Staphylococcus aureus [4], 4 µg/mL; against Streptococcus pneumoniae [5], 0.06 µg/mL (≈ 0.0767 µM).
For `CC[C@H]1OC(=O)[C@H](C)C(=O)[C@H](C)[C@@H](O[C@@H]2O[C@H](C)C[C@H](N(C)C)[C@H]2O)[C@](C)(OC(=O)NC/C=C/c2cncc3ccccc23)C[C@@H](C)C(=O)[C@H](C)[C@H]2CC(=O)O[C@@]21C`, the MIC against Haemophilus influenzae was 4 µg/mL (≈ 4.95 µM); with Streptococcus pneumoniae [1] it was 0.25 µg/mL (≈ 0.309 µM); against Streptococcus pneumoniae [2], 0.25 µg/mL (≈ 0.309 µM); in the test on Staphylococcus aureus [3], 0.5 µg/mL (≈ 0.619 µM); in the test on Staphylococcus aureus [4] it was 4 µg/mL; against Streptococcus pneumoniae [5], ≤ 0.015 µg/mL.
Turning to `CC[C@H]1OC(=O)[C@H](C)C(=O)[C@H](C)[C@@H](O[C@@H]2O[C@H](C)C[C@H](N(C)C)[C@H]2O)[C@](C)(OC(=O)NC/C=C/c2ccc3cccnc3c2)C[C@@H](C)C(=O)[C@H](C)[C@H]2CC(=O)O[C@@]21C`, the MIC was found to be 2 µg/mL (≈ 2.48 µM) in the test on Haemophilus influenzae; 0.12 µg/mL (≈ 0.149 µM) in the test with Streptococcus pneumoniae [1]; 0.25 µg/mL (≈ 0.309 µM) in the test on Streptococcus pneumoniae [2]; 0.25 µg/mL (≈ 0.309 µM) in the test with Staphylococcus aureus [3]; 4 µg/mL in the test with Staphylococcus aureus [4]; 0.03 µg/mL (≈ 0.0371 µM) against Streptococcus pneumoniae [5].
For `CC[C@H]1OC(=O)[C@H](C)C(=O)[C@H](C)[C@@H](O[C@@H]2O[C@H](C)C[C@H](N(C)C)[C@H]2O)[C@](C)(OC(=O)NC/C=C/c2cnc3ccccc3c2)C[C@@H](C)C(=O)[C@H](C)[C@H]2CC(=O)O[C@@]21C`, the MIC against Haemophilus influenzae was 8 µg/mL (≈ 9.9 µM); against Streptococcus pneumoniae [1], 0.12 µg/mL (≈ 0.149 µM); against Streptococcus pneumoniae [2], 0.25 µg/mL (≈ 0.309 µM); with Staphylococcus aureus [3], 0.5 µg/mL (≈ 0.619 µM); in the test with Staphylococcus aureus [4], 2 µg/mL; against Streptococcus pneumoniae [5] it was ≤ 0.015 µg/mL.
`CC[C@H]1OC(=O)[C@H](C)C(=O)[C@H](C)[C@@H](O[C@@H]2O[C@H](C)C[C@H](N(C)C)[C@H]2O)[C@](C)(OC(=O)NC/C=C/c2ccc(-c3ccccc3)nc2)C[C@@H](C)C(=O)[C@H](C)[C@H]2CC(=O)O[C@@]21C`: the MIC against Haemophilus influenzae turned out to be 8 µg/mL (≈ 9.59 µM); against Streptococcus pneumoniae [1] it was 0.5 µg/mL (≈ 0.6 µM); in the test on Streptococcus pneumoniae [2], 0.5 µg/mL (≈ 0.6 µM); with Staphylococcus aureus [3], 0.5 µg/mL (≈ 0.6 µM); in the test with Staphylococcus aureus [4], 2 µg/mL.
On to `CC[C@H]1OC(=O)[C@H](C)C(=O)[C@H](C)[C@@H](O[C@@H]2O[C@H](C)C[C@H](N(C)C)[C@H]2O)[C@](C)(OC(=O)NC/C=C/c2ccc(-c3ncccn3)cc2)C[C@@H](C)C(=O)[C@H](C)[C@H]2NC(=O)O[C@@]21C`, for which the MIC came to 4 µg/mL (≈ 4.78 µM) against Haemophilus influenzae; 0.06 µg/mL (≈ 0.0718 µM) against Streptococcus pneumoniae [1]; 0.06 µg/mL (≈ 0.0718 µM) in the test on Streptococcus pneumoniae [2]; 0.12 µg/mL (≈ 0.144 µM) in the test with Staphylococcus aureus [3]; 0.25 µg/mL in the test with Staphylococcus aureus [4]; 0.03 µg/mL (≈ 0.0359 µM) in the test on Streptococcus pneumoniae [5].
Consider `CC[C@H]1OC(=O)[C@H](C)C(=O)[C@H](C)[C@@H](O[C@@H]2O[C@H](C)C[C@H](N(C)C)[C@H]2O)[C@](C)(OC(=O)NC/C=C/c2ccc(-c3ncccn3)cc2)C[C@@H](C)C(=O)[C@@H](C)[C@H]2CC(=O)O[C@@]21C`, for which the MIC with Haemophilus influenzae turned out to be 8 µg/mL (≈ 9.58 µM); in the test with Streptococcus pneumoniae [1], 2 µg/mL (≈ 2.4 µM); against Streptococcus pneumoniae [2], 1 µg/mL (≈ 1.2 µM); in the test with Staphylococcus aureus [3] it was 2 µg/mL (≈ 2.4 µM); in the test on Staphylococcus aureus [4], 16 µg/mL; against Streptococcus pneumoniae [5], 0.12 µg/mL (≈ 0.144 µM).
`CC[C@H]1OC(=O)[C@H](C)C(=O)[C@H](C)[C@@H](O[C@@H]2O[C@H](C)C[C@H](N(C)C)[C@H]2O)[C@](C)(OC(=O)NC/C=C/c2ccc(-c3ncccn3)cc2)C[C@@H](C)C(=O)[C@H](C)[C@H]2CC(=O)O[C@@]21C`: the MIC in the test on Haemophilus influenzae worked out at 8 µg/mL (≈ 9.58 µM); against Streptococcus pneumoniae [1] it was 0.06 µg/mL (≈ 0.0719 µM); in the test on Streptococcus pneumoniae [2] it was 0.25 µg/mL (≈ 0.299 µM); in the test with Staphylococcus aureus [3], 0.12 µg/mL (≈ 0.144 µM); with Staphylococcus aureus [4], 0.5 µg/mL; in the test on Streptococcus pneumoniae [5], 0.03 µg/mL (≈ 0.0359 µM).
Take `CC[C@H]1OC(=O)[C@H](C)C(=O)[C@H](C)[C@@H](O[C@@H]2O[C@H](C)C[C@H](N(C)C)[C@H]2O)[C@](C)(OC(=O)NC/C=C/c2cccc(-c3ncccn3)c2)C[C@@H](C)C(=O)[C@H](C)[C@H]2CC(=O)O[C@@]21C`: the MIC amounted to 4 µg/mL (≈ 4.79 µM) against Haemophilus influenzae; 0.25 µg/mL (≈ 0.299 µM) against Streptococcus pneumoniae [1]; 0.5 µg/mL (≈ 0.599 µM) in the test with Streptococcus pneumoniae [2]; 0.5 µg/mL (≈ 0.599 µM) against Staphylococcus aureus [3]; 2 µg/mL in the test with Staphylococcus aureus [4]; 0.06 µg/mL (≈ 0.0719 µM) against Streptococcus pneumoniae [5].
For the molecule `CC[C@H]1OC(=O)[C@H](C)[C@@H](O[C@H]2C[C@@](C)(OC)[C@@H](O)[C@H](C)O2)[C@H](C)[C@@H](O[C@@H]2O[C@H](C)C[C@H](N(C)C)[C@H]2O)[C@](C)(O)C[C@@H](C)C(=O)[C@H](C)[C@@H](O)[C@]1(C)O` [ERYTHROMYCIN], the MIC against Haemophilus influenzae was 8 µg/mL (≈ 10.9 µM); in the test with Streptococcus pneumoniae [1], > 16 µg/mL; with Streptococcus pneumoniae [2] it was 4 µg/mL (≈ 5.45 µM); in the test with Staphylococcus aureus [3], 0.5 µg/mL (≈ 0.681 µM); with Staphylococcus aureus [4], 0.12 µg/mL; against Streptococcus pneumoniae [5] it was 0.06 µg/mL (≈ 0.0818 µM).
For `CC[C@H]1OC(=O)[C@H](C)C(=O)[C@H](C)[C@@H](O[C@@H]2O[C@H](C)C[C@H](N(C)C)[C@H]2O)[C@](C)(OC)C[C@@H](C)C(=O)[C@H](C)[C@H]2N(CCCCn3cnc(-c4cccnc4)c3)C(=O)O[C@]12C` [TELITHROMYCIN], the MIC was 2 µg/mL (≈ 2.46 µM) against Haemophilus influenzae; 0.06 µg/mL (≈ 0.0739 µM) against Streptococcus pneumoniae [1]; 0.12 µg/mL (≈ 0.148 µM) with Streptococcus pneumoniae [2]; 0.12 µg/mL (≈ 0.148 µM) in the test on Staphylococcus aureus [3]; 0.5 µg/mL in the test with Staphylococcus aureus [4]; 0.015 µg/mL (≈ 0.0185 µM) in the test with Streptococcus pneumoniae [5].
